The source of these data is patent publication US9718825B2, “N-(4-(azaindazol-6-yl)-phenyl)-sulfonamides and their use as pharmaceuticals” (priority 2013, dated 2017).

SMILES strings stand for the structures. pIC50: −log10 of the molar value. Bounds are passed on as bounds.

In test [1] the target is recombinant human SGK-1 enzyme (Homo sapiens, UniProt O00141). The experiment in a line: Enzymatic activity assay: SGK-1 substrate peptide phosphorylation (Caliper lab-chip mobility shift). In kind it is biochemical. To be noted: peptide substrate 1 μM, ATP 10 μM, 60 min at 37° C., read-out: IC50 values for inhibition of SGK-1 enzymatic activity. Here is the method: In one of the cellular assays, the SGK-1 dependent phosphorylation of glycogen synthase kinase 3beta (GSK3beta) in U2OS cells was measured, in another one, a functional electrophysiological assay, the SGK-1 dependent activation of epithelial Na^+ channel (ENaC) currents in A6 cell monolayers, and in another one chondrocyte hypertrophic differentiation in mouse chondrogenic ATDC5 cells.
A) Enzymatic Activity Assay
For the determination of the compound dose response, a 10 mM DMSO stock solution was diluted and tested in a ten-point, three-fold dilution series run in duplicate beginning at 30 μM final concentration. Data were analyzed using a four-parameter curve fit with a fixed minimum and maximum experimentally defined as the average positive and negative controls on each plate.

Test [2] deals with SGK-1 dependent phosphorylation of GSK3beta in U2OS cells. The experiment in a line: SGK-1 dependent phosphorylation of GSK3beta in U2OS cells overexpressing recombinant SGK-1 and GSK3beta. In kind it is cell-based, human. To be noted: U2OS cells, 6 h incubation, ratio of phosphorylated GSK3beta to total GSK3beta; read-out: IC50 values for inhibition of SGK-1 dependent phosphorylation of GSK3beta in U2OS cells. As to the method: B) Determination of the Effect on SGK-1 Dependent Phosphorylation of GSK3beta in U2OS Cells
U2OS cells were cultured in 1:1 Dulbecco modified Eagle medium/Ham's F12 and 10% heat-inactivated fetal calf serum (FCS Gold) at 37° C., 7% CO2 and 95% relative humidity. […] Cell suspension mixed with BacMam viruses was seeded in 96 well pCLEAR plates (Greiner) at 3×10^4 cells per well in 250 μl medium. […] 1 μl of a solution of the test compound at 250×final concentration was added. Cells are incubated at 37° C., 7% CO2 and 95% relative humidity. […] After removing the fixation solution, cells were permeabilised by adding 200 μl PBT (0.2% Triton X-100 in PBS) per well for 5 min. After removing PBT, cells were blocked by adding 200 μl of blocking solution (1% bovine serum albumine in PBS) per well. Blocking solution was removed and 50 μl of primary antibody (rabbit anti-phospho-GSK-3beta (Ser9), and mouse anti-GSK-3beta) were added for 1 h. […] After washing the cells 3 times with PBS, 200 μl of PBS were added. Fluorescence signals were measured with the ImageXpress MICRO (Molecular Devices).

recombinant human SGK-1 enzyme, sequence (O00141 whole entry, looked up): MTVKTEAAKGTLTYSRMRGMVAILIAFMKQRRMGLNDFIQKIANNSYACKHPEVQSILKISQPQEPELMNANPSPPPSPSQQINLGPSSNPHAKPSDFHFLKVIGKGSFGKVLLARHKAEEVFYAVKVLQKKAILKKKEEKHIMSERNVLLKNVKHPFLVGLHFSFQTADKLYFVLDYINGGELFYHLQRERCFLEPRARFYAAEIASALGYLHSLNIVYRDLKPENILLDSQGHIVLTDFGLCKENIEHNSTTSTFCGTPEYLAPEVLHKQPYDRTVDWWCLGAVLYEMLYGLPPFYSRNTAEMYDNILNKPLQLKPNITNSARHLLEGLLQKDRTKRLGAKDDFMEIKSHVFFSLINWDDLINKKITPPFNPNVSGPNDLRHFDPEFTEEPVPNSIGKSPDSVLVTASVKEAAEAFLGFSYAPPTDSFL

Consider `COc1ccc(F)c(S(=O)(=O)Nc2ccc(-c3nc(OCC4CNCCO4)c4c(C)n[nH]c4n3)cc2)c1` (stereo not drawn) [Example 295], for which the pIC50 (as a rule, the negative decadic logarithm of the IC50, by convention in mol/L) is 8.59 in test [1] and 7.60 in test [2].
On to `Cc1nc(-c2ccc(NS(=O)(=O)c3ccc(F)cc3Cl)cc2)nc2[nH]nc(N)c12` [Example 164], for which the pIC50 in test [1] was 7.40; in test [2] it was 6.22.
With `COc1ccc(Cl)c(S(=O)(=O)Nc2ccc(-c3nc(OC4CCCNC4)c4c(C)n[nH]c4n3)cc2)c1` (stereo not drawn) [Example 319], the values for the pIC50 in test [1] and in test [2] were 8.35 and 7.51, respectively.
As to `Cc1nc(-c2ccc(NS(=O)(=O)c3cc4c(cc3Br)OCCCO4)cc2)nc2[nH]nc(N)c12` [Example 477], the results for the pIC50 in test [1] and in test [2] were 8.32 and 5.35, respectively.
Taken in the same sequence, the figures for `COc1ccc(F)c(S(=O)(=O)Nc2ccc(-c3nc(OC4CCNCC4F)c4c(C)n[nH]c4n3)cc2)c1` (stereo not drawn) [Example 302] were 8.72 and 7.07.
Regarding `COCCc1nc(-c2ccc(NS(=O)(=O)c3cc(C)ccc3C#N)cc2)nc2[nH]nc(N)c12` [Example 513], the figures for the pIC50 in test [1] and in test [2] were 7.17 and 6.52, respectively.
Taken in the same sequence, the figures for `Cc1n[nH]c2nc(-c3ccc(NS(=O)(=O)c4cc(Cl)ccc4Cl)cc3)nc(OC3CCC(O)CC3)c12` (stereo not drawn) [Example 214] were 7.16 and 6.89.
Take `Cc1ccc(C#N)c(S(=O)(=O)Nc2ccc(-c3nc(OCC4CNCCO4)c4cn[nH]c4n3)cc2)c1` (stereo not drawn) [Example 315]: the pIC50 is 8.10 in test [1] and 6.22 in test [2].
The like results for `O=S(=O)(Nc1ccc(-c2nc(N[C@H]3CC[C@@H](O)CC3)c3cn[nH]c3n2)cc1)c1cc(Cl)ccc1F` [Example 77] were, in that order, 8.41 and 5.44.
Turning to `O=S(=O)(Nc1ccc(-c2nc(SCCCO)c3cn[nH]c3n2)cc1)c1cc(Cl)ccc1Cl` [Example 89], the pIC50 in test [1] was more than 8.82; in test [2] it was 7.00.
The like results for `COCCc1nc(-c2ccc(NS(=O)(=O)c3cc(OC)ccc3Cl)cc2)nc2[nH]nc(N)c12` [Example 502] were, in that order, 7.74 and 6.38.
Turning to `Cc1ccc(C#N)c(S(=O)(=O)Nc2ccc(-c3nc(OCC4CNCCO4)c4c(C)n[nH]c4n3)cc2)c1` (stereo not drawn) [Example 293], the pIC50 in test [1] is 8.49; in test [2], 6.20.
As to `Cc1ccc(F)c(S(=O)(=O)Nc2ccc(-c3nc(OC4C[C@@H](O)C[C@@H](O)C4)c4cn[nH]c4n3)cc2)c1` (stereo partly drawn) [Example 119], the pIC50 was more than 8.82 in test [1] and 4.96 in test [2].
The like results for `Cc1n[nH]c2nc(-c3ccc(NS(=O)(=O)c4ccccc4F)cc3)nc(OCCCN)c12` [Example 211] were, in that order, 8.64 and 7.10.
Taken in the same sequence, the figures for `Cc1n[nH]c2nc(-c3ccc(NS(=O)(=O)c4cc5c(cc4Cl)OCCO5)cc3)ncc12` [Example 103] were 8.64 and 5.04.
The like results for `COc1nc(-c2ccc(NS(=O)(=O)c3cc(Cl)ccc3C#N)cc2)nc2[nH]ncc12` [Example 138] were, in that order, 7.36 and 5.46.
With `O=S(=O)(Nc1ccc(-c2nc(N3CCNCC3)c3cn[nH]c3n2)cc1)c1cccc(Cl)c1Cl` [Example 15], the pIC50 was more than 8.92 in test [1] and 6.06 in test [2].
Taken in the same sequence, the figures for `O=S(=O)(Nc1ccc(-c2nc(O[C@H]3CC[C@@H](O)CC3)c3cn[nH]c3n2)cc1)c1cc(Cl)ccc1Cl` [Example 80] were more than 8.82 and 6.35.
As to `O=S(=O)(Nc1ccc(-c2nc(OCC3CNCCO3)c3cn[nH]c3n2)cc1)c1cc(Cl)ccc1Cl` (stereo not drawn) [Example 312], the negative logarithm of the IC50 (pIC50) is 8.22 in test [1] and 6.89 in test [2].
As for `Cc1nc(-c2ccc(NS(=O)(=O)c3cc(Cl)ccc3F)cc2)nc2[nH]nc(N)c12` [Example 466], the figures for the pIC50 in test [1] and in test [2] were more than 8.82 and 6.59, respectively.
On to `COc1ccc(F)c(S(=O)(=O)Nc2ccc(-c3nc(OCC4CNCCO4)c4cn[nH]c4n3)cc2)c1` (stereo not drawn) [Example 309], for which the pIC50 in test [1] is 8.55; in test [2], 6.80.
The like results for `COc1ccc(Cl)c(S(=O)(=O)Nc2ccc(-c3nc(OCCCN)c4cn[nH]c4n3)cc2)c1` [Example 203] were, in that order, more than 8.82 and 6.80.
As to `COc1ccc(F)c(S(=O)(=O)Nc2ccc(-c3nc(OC)c4cn[nH]c4n3)cc2)c1` [Example 144], the negative-log IC50 (pIC50) in test [1] is 8.46; in test [2], 7.26.
Take `COc1ccc(C#N)c(S(=O)(=O)Nc2ccc(-c3nc(OCC(C)C)c4c(N)n[nH]c4n3)cc2)c1` [Example 336]: the results for the pIC50 in test [1] and in test [2] were 8.26 and 6.72, respectively.
Regarding `Nc1n[nH]c2nc(-c3ccc(NS(=O)(=O)c4cc5c(cc4Br)OCCCO5)cc3)ncc12` [Example 459], the pIC50 in test [1] was 8.17; in test [2], 5.40.
The like results for `COc1ccc(Cl)c(S(=O)(=O)Nc2ccc(-c3nc(C)c4cn[nH]c4n3)cc2)c1` [Example 491] were, in that order, 8.74 and 5.70.
Taken in the same sequence, the figures for `Cc1ccc(F)c(S(=O)(=O)Nc2ccc(-c3nc(OCCCN)c4cn[nH]c4n3)cc2)c1` [Example 204] were more than 8.82 and 6.89.
Taken in the same sequence, the figures for `O=S(=O)(Nc1ccc(-c2nc(N3CC(O)C3)c3cn[nH]c3n2)cc1F)c1cc(Cl)ccc1Cl` [Example 437] were 7.00 and 5.74.
On to `Nc1n[nH]c2nc(-c3ccc(NS(=O)(=O)c4cc(Cl)ccc4Cl)cc3)ncc12` [Example 452], for which the figures for the pIC50 in test [1] and in test [2] were 8.70 and 6.01, respectively.
The like results for `COc1ccc(Cl)c(S(=O)(=O)Nc2ccc(-c3nc(OCC(C)C)c4c(N)n[nH]c4n3)cc2)c1` [Example 332] were, in that order, 7.57 and 6.72.
For `COc1ccc(Cl)c(S(=O)(=O)Nc2ccc(-c3nc(OCC(F)(F)F)c4c(N)n[nH]c4n3)cc2)c1` [Example 194], the pIC50 in test [1] was 8.64; in test [2], 7.00.
The like results for `O=S(=O)(Nc1ccc(-c2nc(N3CCC(O)C3)c3cn[nH]c3n2)cc1F)c1cc(Cl)ccc1Cl` (stereo not drawn) [Example 438] were, in that order, 7.07 and 5.11.
Regarding `Cc1n[nH]c2nc(-c3ccc(NS(=O)(=O)c4cc(Cl)ccc4C#N)cc3)nc(OC3CCNCC3F)c12` (stereo not drawn) [Example 299], the pIC50 in test [1] was 8.48; in test [2] it was 6.39.
As for `Nc1n[nH]c2nc(-c3ccc(NS(=O)(=O)c4cc(Cl)sc4Cl)cc3)nc(C3CC3)c12` [Example 500], the pIC50 in test [1] was 8.57; in test [2] it was 6.60.
As to `Cc1n[nH]c2nc(-c3ccc(NS(=O)(=O)c4cc(F)ccc4C#N)cc3)nc(OC3CCC(O)CC3)c12` (stereo not drawn) [Example 131], the results for the negative logarithm of the IC50 (pIC50) in test [1] and in test [2] were 8.31 and 5.59, respectively.
Taken in the same sequence, the figures for `Cc1n[nH]c2nc(-c3ccc(NS(=O)(=O)c4cc(C#N)ccc4F)cc3)nc(OC3CCC(O)CC3)c12` (stereo not drawn) [Example 128] were 8.57 and 5.44.
For `COc1ccc(Cl)c(S(=O)(=O)Nc2ccc(-c3nc(OC4CCN(CCF)CC4)c4c(C)n[nH]c4n3)cc2)c1` [Example 341], the pIC50 in test [1] was 8.31; in test [2], 7.20.
With `Cc1n[nH]c2nc(-c3ccc(NS(=O)(=O)c4cc(Cl)ccc4Cl)cc3)nc(OCCCN)c12` [Example 210], the pIC50 in test [1] was more than 8.82; in test [2], 7.01.
Consider `COc1ccc(Cl)c(S(=O)(=O)Nc2ccc(-c3nc(O[C@@H]4CCC(O)C4)c4cn[nH]c4n3)cc2)c1` (stereo partly drawn) [Example 91], for which the pIC50 in test [1] was more than 8.82; in test [2], 6.74.
With `COCCc1nc(-c2ccc(NS(=O)(=O)c3cc(OC)ccc3F)cc2)nc2[nH]nc(N)c12` [Example 504], the figures for the pIC50 in test [1] and in test [2] were 7.92 and 6.52, respectively.
Taken in the same sequence, the figures for `Cc1nc(-c2ccc(NS(=O)(=O)C3=CSCC=C3Br)cc2)nc2[nH]nc(N)c12` [Example 173] were 6.48 and 6.22.
Taken in the same sequence, the figures for `Cc1nc(-c2ccc(NS(=O)(=O)c3cc(Cl)ccc3Cl)cc2)nc2[nH]ncc12` [Example 76] were 8.24 and 5.52.
The like results for `O=S(=O)(Nc1ccc(-c2nc(OCCCCO)c3cn[nH]c3n2)cc1)c1cc(Cl)ccc1F` [Example 35] were, in that order, 8.49 and 5.24.
`NCCCOc1nc(-c2ccc(NS(=O)(=O)c3cc(Cl)ccc3Cl)cc2)nc2[nH]ncc12` [Example 63]: the figures for the pIC50 in test [1] and in test [2] were more than 8.92 and 6.55, respectively.
Taken in the same sequence, the figures for `Cc1nc(-c2ccc(NS(=O)(=O)c3cc(F)cc(F)c3Cl)cc2)nc2[nH]nc(N)c12` [Example 479] were 7.80 and 6.55.
